Laboratory results reported in article PMC11528470, “Evidence for the Quercetin Binding Site of Glycogen Phosphorylase as a Target for Liver-Isoform-Selective Inhibitors against Glioblastoma: Investigation of Flavanols Epigallocatechin Gallate and Epigallocatechin” (Journal of Agricultural and Food Chemistry, 2024).
Where two headings read alike, the source gives them in different places.

Tests used:
[1] = molecular target: T1, Rabbit skeletal muscle glycogen phosphorylase b (rmGPb) (Oryctolagus cuniculus, UniProt P00489); experiment: X-ray crystal structure ([…] Å) plus enzyme kinetics (noncompetitive Ki); format: biochemical
T1 construct: gene PYGM
T1 sequence (P00489 2-843): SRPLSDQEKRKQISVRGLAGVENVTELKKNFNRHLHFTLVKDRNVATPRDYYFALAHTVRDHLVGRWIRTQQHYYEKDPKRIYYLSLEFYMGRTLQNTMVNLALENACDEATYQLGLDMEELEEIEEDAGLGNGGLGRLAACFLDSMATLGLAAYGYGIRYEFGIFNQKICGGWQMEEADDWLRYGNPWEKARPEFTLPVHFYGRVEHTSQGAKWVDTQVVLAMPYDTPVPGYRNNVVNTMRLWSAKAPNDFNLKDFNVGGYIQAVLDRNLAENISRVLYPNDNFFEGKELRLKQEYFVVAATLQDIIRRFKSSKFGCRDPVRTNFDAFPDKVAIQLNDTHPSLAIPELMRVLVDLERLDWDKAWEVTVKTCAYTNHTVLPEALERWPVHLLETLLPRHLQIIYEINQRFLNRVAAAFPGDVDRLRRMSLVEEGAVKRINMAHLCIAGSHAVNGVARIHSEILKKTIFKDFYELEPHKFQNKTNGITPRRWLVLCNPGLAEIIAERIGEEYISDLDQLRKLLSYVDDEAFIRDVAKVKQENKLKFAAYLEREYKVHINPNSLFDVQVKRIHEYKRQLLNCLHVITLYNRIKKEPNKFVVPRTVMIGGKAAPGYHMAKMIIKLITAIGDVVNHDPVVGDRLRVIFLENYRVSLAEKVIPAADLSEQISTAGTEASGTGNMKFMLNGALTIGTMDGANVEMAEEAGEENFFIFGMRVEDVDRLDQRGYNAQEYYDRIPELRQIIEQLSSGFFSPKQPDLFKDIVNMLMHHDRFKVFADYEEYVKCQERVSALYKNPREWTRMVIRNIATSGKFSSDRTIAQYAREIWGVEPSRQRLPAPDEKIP

[2] = molecular target: T2, human liver glycogen phosphorylase a (hlGPa) (Homo sapiens, UniProt P06737); experiment: enzyme kinetics on purified hlGPa, Lineweaver–Burk; format: biochemical
T2 construct: gene PYGL
T2 sequence (P06737 2-847): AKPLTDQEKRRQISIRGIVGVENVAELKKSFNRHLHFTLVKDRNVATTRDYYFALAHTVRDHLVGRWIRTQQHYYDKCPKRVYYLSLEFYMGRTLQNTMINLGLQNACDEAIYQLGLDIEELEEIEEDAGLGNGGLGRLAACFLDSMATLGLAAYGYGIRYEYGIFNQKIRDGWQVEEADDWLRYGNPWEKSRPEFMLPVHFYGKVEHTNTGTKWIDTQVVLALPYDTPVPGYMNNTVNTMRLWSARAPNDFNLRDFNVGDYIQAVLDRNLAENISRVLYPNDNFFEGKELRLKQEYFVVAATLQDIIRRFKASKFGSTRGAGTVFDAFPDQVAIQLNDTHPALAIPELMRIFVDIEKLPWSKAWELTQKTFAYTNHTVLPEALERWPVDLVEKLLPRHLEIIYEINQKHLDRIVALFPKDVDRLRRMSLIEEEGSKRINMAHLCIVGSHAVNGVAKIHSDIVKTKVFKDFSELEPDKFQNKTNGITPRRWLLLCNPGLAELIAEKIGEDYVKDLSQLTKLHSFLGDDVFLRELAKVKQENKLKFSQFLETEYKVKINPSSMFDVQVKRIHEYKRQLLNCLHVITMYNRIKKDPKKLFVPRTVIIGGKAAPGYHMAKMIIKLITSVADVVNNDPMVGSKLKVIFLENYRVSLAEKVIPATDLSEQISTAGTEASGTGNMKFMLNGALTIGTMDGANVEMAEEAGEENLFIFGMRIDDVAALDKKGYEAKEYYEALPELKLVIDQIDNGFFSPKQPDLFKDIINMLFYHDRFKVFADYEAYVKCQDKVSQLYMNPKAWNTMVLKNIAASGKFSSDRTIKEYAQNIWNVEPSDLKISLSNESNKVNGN

[3] = molecular target: T1, Rabbit skeletal muscle glycogen phosphorylase b (rmGPb); experiment: X-ray crystal structure ([…] Å) plus enzyme kinetics (noncompetitive Ki); format: biochemical; remark: listed apart in the source
[4] = molecular target: T2, human liver glycogen phosphorylase a (hlGPa); experiment: enzyme inhibition assay on purified hlGPa; format: biochemical
[5] = molecular target: T1, Rabbit skeletal muscle glycogen phosphorylase b (rmGPb)
[6] = molecular target: T1, Rabbit skeletal muscle glycogen phosphorylase b (rmGPb); experiment: X-ray crystal structure of ternary rmGPb-EGCG-glucose complex ([…] Å); multiple inhibition kinetics; format: binding

O=C(O[C@@H]1Cc2c(O)cc(O)cc2O[C@@H]1c1cc(O)c(O)c(O)c1)c1cc(O)c(O)c(O)c1 [EGCG]
Ki [1]: 49.8 ± 1.6 µM | Ki [2]: 17.6 ± 0.7 µM

Oc1cc(O)c2c(c1)O[C@H](c1cc(O)c(O)c(O)c1)[C@H](O)C2 [EGC]
Ki [3]: 286 ± 14.1 µM | IC50 [4]: 194 ± 3.5 µM

Cn1c(=O)c2c(ncn2C)n(C)c1=O [caffeine]
X-ray crystal structure of ternary rmGPb-EGCG-caffeine complex (2.5 Å); multiple [5]: EGCG can bind at the QBS simultaneously with glucose at the catalytic site or caffeine at the inhibitor site

OC[C@H]1OC(O)[C@H](O)[C@@H](O)[C@@H]1O (stereo partly drawn) [glucose]
X-ray crystal structure of ternary rmGPb-EGCG-glucose complex (2.0 Å); multiple [6]: EGCG can bind at the QBS simultaneously with glucose at the catalytic site or caffeine at the inhibitor site
